Reference: the supplement of paper PMC10307832

How the values were obtained:
Experiment in all cases: relative viability (nuclei count vs DMSO), 5 days (fraction); higher = more cells survive
[1] = compound: CC1=C(C(=O)N2C=CSC2=N1)CCN3CCC(=C(C4=CC=CC=C4)C5=CC=C(C=C5)F)CC3 + CC1(C)CCC(c2ccc(Cl)cc2)=C(CN2CCN(c3ccc(C(=O)NS(=O)(=O)c4ccc(N[C@H](CCN5CCOCC5)CSc5ccccc5)c(S(=O)(=O)C(F)(F)F)c4)cc3)CC2)C1 [Navitoclax] (partner 0.5 µM)
Outline: (§1)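 The day after seeding in 1536-well plates, lung cancer cell lines were treated by pin tool with a single drug, or with a fixed anchor-drug dose together with five library-drug doses (not always all listed) in √10 steps. After 5 days, a combined fix-and-stain solution (final 0.05% Triton X-100, 1% formaldehyde, 1 ug/ml Hoechst) was added. Nuclei counted on 4× images gave relative viability as treated counts over vehicle counts, reported as the median of duplicate plates.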

[2] = compound: CC1=C(C(=O)N2C=CSC2=N1)CCN3CCC(=C(C4=CC=CC=C4)C5=CC=C(C=C5)F)CC3 + C[C@@H](Oc1cc(-c2cnn(C3CCNCC3)c2)cnc1N)c1c(Cl)ccc(F)c1Cl [Crizotinib] (partner 1 µM)
Outline: as §1

[3] = compound: CC1=C(C(=O)N2C=CSC2=N1)CCN3CCC(=C(C4=CC=CC=C4)C5=CC=C(C=C5)F)CC3 + Cc1cc(Nc2cc(N3CCN(C)CC3)nc(Sc3ccc(NC(=O)C4CC4)cc3)n2)n[nH]1 [Tozasertib] (partner 0.1 µM)
Outline: as §1

[4] = compound: CC1=C(C(=O)N2C=CSC2=N1)CCN3CCC(=C(C4=CC=CC=C4)C5=CC=C(C=C5)F)CC3 + O=C(CCCCCCC(=O)Nc1ccccc1)NO [Vorinostat] (partner 1 µM)
Outline: as §1

Cell Line	relative viability ([1]; first compound 0.08 µM)	relative viability ([1]; first compound 0.253 µM)	relative viability ([1]; first compound 0.8 µM)	relative viability ([1]; first compound 2.53 µM)	relative viability ([1]; first compound 8 µM)	relative viability ([2]; first compound 0.08 µM)	relative viability ([2]; first compound 0.253 µM)	relative viability ([2]; first compound 0.8 µM)	relative viability ([2]; first compound 2.53 µM)	relative viability ([2]; first compound 8 µM)	relative viability ([3]; first compound 0.08 µM)	relative viability ([3]; first compound 0.253 µM)	relative viability ([3]; first compound 0.8 µM)	relative viability ([3]; first compound 2.53 µM)	relative viability ([3]; first compound 8 µM)	relative viability ([4]; first compound 0.08 µM)	relative viability ([4]; first compound 0.253 µM)	relative viability ([4]; first compound 0.8 µM)	relative viability ([4]; first compound 2.53 µM)	relative viability ([4]; first compound 8 µM)
NCI-H1666	0.991	0.854	1.04	1.16	0.836	0.909	0.939	0.839	0.937	0.866	0.596	0.591	0.655	0.642	0.493	1	0.911	1.11	1.09	0.891
NCI-H441		0.694	0.686	0.638	0.371		0.866	0.773	0.872	0.549	0.67	0.754	0.657	0.688	0.498	0.998	0.628	0.765	1.05	0.61
NCI-H596	0.85	1.17	1.04	1.1	0.556	1.01	1.13	0.957	1.03	0.949	0.757	0.757	1.14	0.877	0.516	0.57	0.576	0.626	0.583	0.587
H3255	0.416	0.393	0.557	0.542	0.419	0.776	0.967	0.798	0.916	0.752	0.497	0.921	0.633	0.489	0.507	0.821	0.922	0.841	0.836	0.666
NCI-H2087	1	0.712	0.995	1.23	0.794	0.818	0.813	0.94	0.944	0.525	0.298	0.245	0.276	0.242	0.23	0.865	0.591	0.859	0.625	0.485
BEN	0.0374	0.0689	0.0632	0.23	0.108	0.725	0.818	0.963	0.963	0.69	0.48	0.493	0.493	0.529	0.551	0.548	0.589	0.523	0.682	0.495
NCI-H1975	1.08	1.02	1.17	1.26	0.573	0.984	0.96	0.93	0.943	0.583	0.852	0.63	0.816	0.922	0.37	0.761	0.748	0.748	0.774	0.492
NCI-H520	1.04	0.939	1.21	1.35	0.701	0.679	0.608	0.858	0.58	0.476	0.514	0.435	0.439	0.464	0.401	0.729	0.751	0.743	0.962	0.489
PC-3 [JPC-3]	0.789	0.657	0.845	0.921	0.803	1.02	0.984	1.15	1.1	0.919	0.924	0.821	0.91	0.988	0.66	0.746		0.748	0.879	0.666
COR-L 105	0.765	0.708	0.724	0.808	0.634	0.676	0.809	0.641	0.836	0.786	0.322	0.346	0.34	0.388	0.345	0.58	0.738	0.882	1.29	0.607
HARA	1.18	1.33	1.16	1.23	0.537	1	1.21	1.25	1.04	0.791	0.111	0.117	0.104	0.111	0.114	0.477	0.545	0.513	0.665	0.372
LXF-289	0.917	1.19	0.947	0.97	0.816	0.911	0.93	0.891	0.797	0.773	0.219	0.265	0.16	0.193	0.155	0.527	0.813	0.75	0.738	0.613
NCI-H647	1.12	1.13	1.11	1.2	0.476	1.09	1.61	1.01	1.34	0.476	0.267		0.437	0.105	0.141	0.681	0.574	0.603	0.514	0.333
HCC-78	0.834	0.786	0.924	0.838	0.608	0.283	0.335	0.34	0.319	0.326	0.402	0.468	0.451	0.345	0.303	0.385	0.458	0.546	0.424	0.476
LCLC-97TM1	0.263	0.306	0.347	0.537	0.249	0.453	0.367	0.307	0.263	0.343	0.266	0.166	0.193	0.237	0.182	0.521	0.831	0.754	0.734	0.415
NCI-H1944	1.03	0.916	1.02	1.06	1.06	1.06	1.08	1.22	1.14	1.07	0.26	0.273	0.226	0.224	0.204	0.442	0.502	0.499	0.54	0.377
